Measured values: patent US9493468B2, “Antifungal 5,6-dihydro-4H-pyrrolo[1,2-a][1,4]benzo-diazepines and 6H-pyrrolo[1,2-a][1,4]benzodiazepines substituted with heterocyclic derivatives” (Janssen Pharmaceutica NV, priority 2011, dated 2016)

Legend:
Format in all cases: cell-based
Microsporum canis = test: Antifungal activity in vitro, resazurin growth inhibition: Microsporum canis (B68128)
Procedure, shortened: (§1)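 Dermatophytes incubated at 27° C. for one week or more with compound, max 64 μM, in RPMI-1640/MOPS pH 7.0±0.1, 10^3 cfu/well. Viability by resazurin-to-resorufin fluorescence, 550/590 nm.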

[1] = tested on: Trichophyton mentagrophytes; test: Antifungal activity in vitro, resazurin growth inhibition: Trichophyton mentagrophytes (B70554)
Procedure, shortened: as §1

Trichophyton rubrum = test: Antifungal activity in vitro, resazurin growth inhibition: Trichophyton rubrum (B68183)
Procedure, shortened: as §1

Sporothrix schenkii = test: Antifungal activity in vitro, resazurin growth inhibition: Sporothrix schenkii (B62482)
Procedure, shortened: (§2)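 Fungi (10^3 cfu/well) grown in RPMI-1640 with L-glutamine, 2% glucose, MOPS pH 7.0, against 2- or 4-fold compound dilutions up to 64 μM. Dermatophytes incubated one week or more at 27° C. Growth inhibition read fluorimetrically (λex 550, λem 590 nm) after resazurin addition and further incubation.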

Aspergillus fumigatus = test: Antifungal activity in vitro, resazurin growth inhibition: Aspergillus fumigatus (B42928)
Procedure, shortened: as §2

Candida parapsilosis = test: Antifungal activity in vitro, resazurin growth inhibition: Candida parapsilosis (B66126)
Procedure, shortened: as §2

Cryptococcus neoformans = test: Antifungal activity in vitro, resazurin growth inhibition: Cryptococcus neoformans (B66663)
Procedure, shortened: as §2

Compound	Inf. B: Microsporum canis B68128, pIC50 (Microsporum canis)	Inf. G: Trichophyton mentagrophytes B70554, pIC50 [1]	Inf. C: Trichophyton rubrum B68183, pIC50 (Trichophyton rubrum)	Inf. A: Sporothrix schenkii B62482, pIC50 (Sporothrix schenkii)	Inf. E: Aspergillus fumigatus B42928, pIC50 (Aspergillus fumigatus)	Inf. D: Candida parapsilosis B66126, pIC50 (Candida parapsilosis)	Inf. F: Cryptococcus neoformans B66663, pIC50 (Cryptococcus neoformans)
CCc1csc(C2=NCc3c(Cl)cccc3-n3cccc32)n1 [Compound 68]	4.91	4.80	5.58	<4.19	<4.19	<4.19	4.38
CCc1csc(C2=NCc3c(Cl)cc(Cl)cc3-n3cccc32)n1 [Compound 69]	4.71	<4.19	5.09	<4.19	<4.19	<4.19	<4.19
CC(C)n1ccc(C2=NCc3cccc(Cl)c3-n3cccc32)cc1=O [Compound 71]	5.83	5.78	5.55	5.42	<4.19	<4.19	5.00
CCc1ccc(C2=NCc3c(Cl)cccc3-n3cccc32)nc1 [Compound 72]	5.61	<4.49	6.05	<4.49	<4.49	<4.49	<4.49
CCc1ccc(C2=NCc3c(Cl)cc(Cl)cc3-n3cccc32)nc1 [Compound 73]	5.10	<4.49	6.09	<4.49	<4.49	<4.49	<4.49
CCc1ccc(C2=NCc3c(ccc(Cl)c3Cl)-n3cccc32)cn1 [Compound 75]	6.45	<4.19	<4.19	<4.19	<4.19	<4.19	<4.19
Fc1cc(Cl)c2c(c1)-n1cccc1C(c1ccc(Cl)nc1)=NC2 [Compound 78]	5.41	4.47	6.18	<4.19	5.42	5.07	<4.19
Fc1cccc2c1CN=C(c1cnc(Cl)c(Cl)c1)c1cccn1-2 [Compound 80]	5.09	5.23	5.79	5.42	5.59	<4.19	<4.19
Fc1cc(F)c2c(c1)-n1cccc1C(c1cnc(Cl)c(Cl)c1)=NC2 [Compound 81]	<4.19	<4.19	<4.19	5.65	5.58	4.19	<4.19
Fc1cccc2c1CN=C(c1ccc(C(F)(F)F)nc1)c1cccn1-2 [Compound 90]	5.42	5.33	6.19	<4.19	<4.19	<4.19	<4.19
CC(=O)c1ccc(C2=NCc3c(F)cccc3-n3cccc32)cn1 [Compound 93]	5.26	5.63	6.16	<4.19	5.02	<4.19	<4.19
Cc1cc(C2=NCc3ccccc3-n3cccc32)ccn1 [Compound 95]	<4.49	4.58	5.17	<4.49	<4.49	<4.49	<4.49
Cc1cc(C2=NCc3c(Cl)cccc3-n3cccc32)ccn1 [Compound 96]	4.80	5.00	5.10	<4.19	4.40	<4.19	<4.19
Cc1cc(C2=NCc3c(C)cccc3-n3cccc32)ccn1 [Compound 97]	4.87	4.83	5.99	<4.49	<4.49	<4.49	<4.49
FC(F)(F)c1cc(C2=NCc3ccc(Cl)cc3-n3cccc32)ccn1 [Compound 98]	<4.19	4.48	4.47	4.49	4.49	5.06	5.03
